From patent US20130324542A1, “[1,2,4]TRIAZOLO[4,3-B][1,2,4]TRIAZINE COMPOUNDS, PREPARATION METHOD AND USE THEREOF” (SHANGHAI INSTITUTE OF MATERIA MEDICA, CHINESE ACADEMY OF …, priority 2010, published 2013)

Tests used:
[1] = Body weight and death of nude mice bearing U-87MG (toxicity and side effect); conditions: for weight loss of nude mice: 50 and 100 mg/kg intraperitoneally once daily, 17 days
Procedure: LI-87MG Cells were inoculated subcutaneously in right axillary fossa of nude mice with 5×10^6 cells per mouse. After the xenografted tumor was formed, it was passed three generations in nude mice and then used. Tumor tissue in productive phase was cut into nubs of about 1.5 mm^3 and inoculated subcutaneously in right axillary fossa of the nude mice in a sterile condition. The diameters of the xenografted tumors were measured by a vernier caliper. […] The administration was performed once daily and lasted for 17 days. At the same time, the negative group was administered with equivalent physiological saline.
wherein, CVt was tumor volume in control group measured at a given time point, CV0 was tumor volume in control group measured before grouping and treatment, TVt was tumor volume in treatment group measured at a given time point, and TV0 was tumor volume in treatment group measured before grouping and treatment. The significant differences between the treated and control groups were evaluated using t-test. At the same time, body weight of nude mice in each group was measured twice a week to preliminarily evaluate the toxicity and side effect of compound.

[2] = tested on: Human Glioblastoma Cells U-87MG Xenograft; assay: Tumor growth in human glioblastoma U-87MG xenograft model of nude mice; format: in vivo; conditions: for tumor growth inhibition (TGI): 17 days, end of treatment; for inhibitory action on the growth of transplanted tumor: at each administration dose (50, 100 mg/kg i.p. daily)
Procedure: The treatment group was administered intraperitoneally and daily with compound I-19 at various concentrations (50 mg/kg, 100 mg/kg) respectively.
The length (A) and width (B) of the tumor in mice were measured twice a week and tumor volume was calculated thereby as: V=A×B^2/2. Provided that Vt was the tumor volume measured at a given time point and V0 was the tumor volume measured before the mice were grouped and administered, tumor growth inhibition (TGI) was calculated as: […]

[3] = tested on: NIH3T3/TPR-Met cells; assay: Cell proliferation mediated by c-Met, SRB assay, NIH3T3/TPR-Met cells; format: cell-based; conditions: 72 h
[4] = tested on: NIH3T3 background cells; assay: Cell proliferation, SRB assay, NIH3T3 background cells as control; format: cell-based; conditions: 72 h
[5] = molecular target: T1, TPR-Met (Homo sapiens, UniProt P08581); assay: TPR-Met phosphorylation in NIH3T3/TPR-Met cells (Western blot); format: cell-based; conditions: 0.01 μM, 6 h
T1 construct: therein no interference of Met's extracellular fragment, and the intracellular TPR-Met fused protein was expressed in cytoplasm; expressed in transfected cells; host or cells: NIH3T3/TPR-Met cells (mouse fibroblasts expressing TPR-Met); the other entry of the earlier key: TPR (P12270, Nucleoprotein TPR)
Procedure: NIH3T3/TPR-Met cells (in such cells, therein no interference of Met's extracellular fragment, and the intracellular TPR-Met fused protein was expressed in cytoplasm and could be activated continuously independent of HGF) were inoculated on a 12-well plate. After fusion degree reached 80%, the cells were treated with indicated concentration of corresponding compounds and SU11274 for 6 h at 37° C., collected and washed once by cold PBS (containing 1 mM sodium vanadate), and lysed with 1×SDS gel loading buffer (50 mM Tris-HCl (pH 6.8), 100 mM DTT, 2% SDS, 10% glycerin, 1 mM sodium vanadate, and 0.1% bromophenol blue). The lysate was heated in a boiling-water bath for 10 min and then centrifuged (12000 rpm) at 4° C. for 10 min.
The supernatant was subjected to SDS-PAGE electrophoresis and the protein was transferred to nitrocellulose membranes (Amersham Life Sciences, Arlington Heights, Ill., USA) by a Semi-Dry Electroblotting System. […] The membrane was washed three times by TBS/T containing 1 mM of sodium vanadate, 15 min for each time, and then placed in a solution of secondary antibody (1:2000) at room temperature for 1-2 hours. After the membranes were washed 3 times as above, they were dyed with an ECL reagent, exposed and developed.
The nitrocellulose membranes were placed in Reblot™ solution of Chemicon co. […]

[6] = molecular target: c-Met tyrosine kinase (Homo sapiens, UniProt P08581); assay: c-Met kinase activity on molecular level (ELISA, Poly(Glu,Tyr)4:1 substrate); format: biochemical; conditions: ATP 5 μM, 37° C., 1 h
[7] = 100 mg/kg intraperitoneally once daily
[8] = 50 mg/kg intraperitoneally once daily

Chain of c-Met tyrosine kinase (P08581 25-1390): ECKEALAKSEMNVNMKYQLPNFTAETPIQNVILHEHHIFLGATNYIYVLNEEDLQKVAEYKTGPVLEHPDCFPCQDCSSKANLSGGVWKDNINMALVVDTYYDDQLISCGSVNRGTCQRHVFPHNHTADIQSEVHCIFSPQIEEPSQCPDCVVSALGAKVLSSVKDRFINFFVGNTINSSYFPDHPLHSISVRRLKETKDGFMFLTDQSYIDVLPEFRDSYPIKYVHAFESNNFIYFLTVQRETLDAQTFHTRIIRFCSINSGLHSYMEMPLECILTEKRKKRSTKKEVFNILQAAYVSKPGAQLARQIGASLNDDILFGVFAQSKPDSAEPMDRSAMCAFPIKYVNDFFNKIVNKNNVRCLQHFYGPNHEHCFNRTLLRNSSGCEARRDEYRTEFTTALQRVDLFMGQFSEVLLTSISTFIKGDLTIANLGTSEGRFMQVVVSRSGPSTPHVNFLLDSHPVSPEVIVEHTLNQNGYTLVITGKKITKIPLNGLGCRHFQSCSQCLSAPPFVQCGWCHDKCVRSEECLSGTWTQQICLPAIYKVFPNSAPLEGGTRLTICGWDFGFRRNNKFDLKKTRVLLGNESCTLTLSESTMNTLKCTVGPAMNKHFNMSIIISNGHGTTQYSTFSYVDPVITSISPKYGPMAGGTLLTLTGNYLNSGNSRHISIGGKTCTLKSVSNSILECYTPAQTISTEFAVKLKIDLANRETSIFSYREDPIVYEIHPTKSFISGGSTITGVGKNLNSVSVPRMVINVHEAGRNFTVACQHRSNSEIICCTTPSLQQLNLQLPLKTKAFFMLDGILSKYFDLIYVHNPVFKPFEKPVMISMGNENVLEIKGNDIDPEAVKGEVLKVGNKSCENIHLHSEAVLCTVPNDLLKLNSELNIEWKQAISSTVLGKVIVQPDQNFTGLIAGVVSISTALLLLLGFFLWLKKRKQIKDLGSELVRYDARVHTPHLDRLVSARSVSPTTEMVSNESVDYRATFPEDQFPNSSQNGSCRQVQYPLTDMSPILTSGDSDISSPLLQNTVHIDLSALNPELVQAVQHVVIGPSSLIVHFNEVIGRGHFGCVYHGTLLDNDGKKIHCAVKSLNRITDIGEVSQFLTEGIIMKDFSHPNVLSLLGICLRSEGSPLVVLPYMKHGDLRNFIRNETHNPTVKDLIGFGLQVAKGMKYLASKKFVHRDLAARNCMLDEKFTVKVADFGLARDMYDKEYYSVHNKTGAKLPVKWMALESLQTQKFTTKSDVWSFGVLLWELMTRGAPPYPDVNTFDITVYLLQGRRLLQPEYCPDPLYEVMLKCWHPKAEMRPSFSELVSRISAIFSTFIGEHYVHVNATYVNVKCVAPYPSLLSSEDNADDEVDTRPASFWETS
T1 sequence (P08581 with tags, fused parts or gaps): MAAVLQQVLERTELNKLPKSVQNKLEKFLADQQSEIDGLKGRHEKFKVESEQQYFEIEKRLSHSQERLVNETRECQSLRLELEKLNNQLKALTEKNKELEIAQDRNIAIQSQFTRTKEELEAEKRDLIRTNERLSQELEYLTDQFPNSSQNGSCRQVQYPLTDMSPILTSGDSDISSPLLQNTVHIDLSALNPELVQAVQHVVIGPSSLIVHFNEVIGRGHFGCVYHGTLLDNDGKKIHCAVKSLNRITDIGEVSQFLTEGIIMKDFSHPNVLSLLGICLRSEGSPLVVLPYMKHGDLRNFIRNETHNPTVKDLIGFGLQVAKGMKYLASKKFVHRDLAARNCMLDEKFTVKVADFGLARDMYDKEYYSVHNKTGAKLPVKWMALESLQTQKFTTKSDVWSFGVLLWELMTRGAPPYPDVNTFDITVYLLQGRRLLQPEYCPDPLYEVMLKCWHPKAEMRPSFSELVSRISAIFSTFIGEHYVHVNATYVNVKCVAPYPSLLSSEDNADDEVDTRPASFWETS

| SMILES | death of mice [1, 7] | weight loss of nude mice [1] | tumor growth inhibition (TGI) [2, 8] [%] | tumor growth inhibition (TGI) [2, 7] [%] | inhibitory action on the growth of transplanted tumor [2] | inhibition rate (%) on proliferation of NIH3T3/TPR-Met cells ([3]; 1 μM) [%] | inhibition rate (%) on proliferation of NIH3T3/TPR-Met cells ([3]; 10 μM) [%] | inhibition rate (%) on proliferation of NIH3T3/TPR-Met cells ([3]; 50 μM) [%] | inhibition rate (%) on proliferation of NIH3T3 background cells ([4]; 1 μM) [%] | inhibition rate (%) on proliferation of NIH3T3 background cells ([4]; 10 μM) [%] | inhibition rate (%) on proliferation of NIH3T3 background cells ([4]; 50 μM) [%] | c-Met phosphorylation in NIH3T3/TPR-Met cells [5] | IC50 [6] [nM] |
| --- | --- | --- | --- | --- | --- | --- | --- | --- | --- | --- | --- | --- | --- |
| Cn1cc(-c2cnc3nnc(C(F)(F)c4ccc5ncccc5c4)n3n2)cn1 [Compound I-19, 3-[(6-quinolyl)difluoromethyl]-6-[(1-methyl)-4-pyrazolyl]-[1,2,4]triazolo[4,3-b][1,2,4]triazine] | one mouse died on the 9th day | No mouse in I-19 or JNJ-38877605 treated group show obvious weight loss | 83.9 | 95.3 | significantly inhibitory action | – | – | – | – | – | – | – | – |
| Cn1cc(-c2ccc3nnc(C(F)(F)c4ccc5ncccc5c4)n3n2)cn1 [JNJ-38877605, reference compound] | – | No mouse in I-19 or JNJ-38877605 treated group show obvious weight loss | 101.4 | 106.9 | significantly inhibitory action | 70.8 | 72.2 | 77.3 | 16.0 | 15.1 | 25.7 | less potency | 0.95 |
